# Results reported in publication PMC6591251, “Discovery of potent necroptosis inhibitors targeting RIPK1 kinase activity for the treatment of inflammatory disorder and cancer metastasis” (Cell Death & Disease, 2019).
# Several values for one entry are separate records, joined by “and”; a condition that tells them apart may be missing. Equal values may be shown once. Entries after “also recorded” stand apart in the source; their conditions may differ.
# Assays:
# [1] = test system: HT-29 cells stably expressing Flag-tagged RIPK3; assay: RIPK3 puncta formation, immunofluorescence; assay type: cell-based, human; settings: T 100 ng/ml, S, Z 12 h
# Source text: In addition to TNF-induced necroptosis, it is known that TLR3 or TLR4 activation can also trigger necroptosis. We further evaluated the effects of PK6 and PK68 on TLR3- and TLR4-mediated necroptosis induced by poly(I:C)/z-VAD and LPS/z-VAD, respectively. […] To investigate the molecular mechanism of PK series-mediated necroptosis inhibition, we examined the effects of these compounds on the major steps of necroptotic signaling, including activation of RIPK1, RIPK3, and MLKL. […] It has been shown previously that RIPK3 activation leads to the formation of RIPK3 puncta during necroptosis.
# Fig. 3 PK6 and PK68 block cellular activation of RIPK1, RIPK3, and MLKL upon necroptotic stimuli. a, b Bone marrow-derived macrophages from C57BL/6 mice or rat were pretreated with DMSO, PK6(10 μM), or PK68 (100 nM) for 1 h and subsequently treated with indicated stimuli for 24–30 h. Cell viability was determined by measuring ATP levels. L, LPS (20 ng/ml); P, poly(I:C) (50 μg/ml); S (100 nM); Z (10 μM). Data are represented as the mean ± standard deviation of triplicates. c HT-29 cells were treated with the indicated compound for 1 h prior to the treatment of T (40 ng/ml), S (100 nM), and Z (20 μM) for additional 8 h. […] The distribution of RIPK3 was detected by immunofluorescence. *P < 0.05. **P < 0.01. ***P < 0.001 […]
# human RIPK1 = biological target: T1, human RIPK1 (Homo sapiens, UniProt Q13546); assay: In vitro kinase activity assay (ADP-Glo); assay type: biochemical; settings: recombinant RIPK1; ATP 50 μM
# T1 construct: purchased SignalChem
# Protocol: Having shown that PK6 and PK68 can inhibit activation of both RIPK1 and RIPK3 during TNF-mediated necroptosis, we sought to determine if PK6 and PK68 can directly target RIPK1 or and RIPK3 by performing in vitro kinase assays. Both PK6 and PK68 were able to block the kinase activities of both human RIPK1 and mouse RIPK1 in vitro (Fig. 4a and Supplementary Fig. 19).
# Recombinant proteins were incubated with PK6 and PK68 as indicated. […] NIH3T3-RIPK3 cells were pretreated with indicated compounds for 1 h and subsequently treated with T (40 ng/ml)/S (100 nM)/Z (20 μM) or AP20187 (100 nM) for 24 h. Cell viability was determined by measuring ATP levels. e PK6 and PK68 have no effect on MLKL dimerization-induced cell death in HeLa-MLKL (1–190) cells that stably express MLKL (1–190aa) fused to DmrB. HeLa-MLKL (1–190) cells were pretreated with indicated compounds for 1 h and subsequently treated with AP20187 (100 nM) for 24 h. Cell viability was determined by measuring ATP levels.
# The recombinant RIPK1 or RIPK3 protein was incubated with DMSO or the indicated compound for 15 min in the assay buffer (25 mM HEPES pH 7.2, 20 mM MgCl2, 12.5 mM MnCl2, 12.5 mM β-glycerol phosphate, 5 mM EGTA, 2 mM EDTA, and 2 mM DTT). […] The luminescence was measured to calculate the kinase activity after the addition of the ADP-Glo Kinase Assay kit following the manufacturer’s instructions (Promega).
# [2] = test system: NF-κB activation in HT-29 cells; assay: TNF-induced NF-κB activation, western blot of IκB-α and phospho-IκB-α; assay type: cell-based, human; settings: TNF-α 40 ng/ml 15 min
# Protocol: Further, we evaluated the selectivity of PK68 against a panel of 369 kinases provided by Reaction Biology (at 1000 nM). […] In addition, we followed on some of the active “hits” from the kinome scan. PK68 was tested against TNIK and TRKA by a reputable CRO company. […] RIPK1 is known to mediate NF-κB activation independently of its kinase activity. […] It has been shown that homodimerization of RIPK3 or MLKL induced by the dimerizer leads to necroptosis bypassing the upstream signals[10],[37]. […] This dimerized RIPK3-induced necroptosis was blocked by RIPK3 inhibitor GSK873 but was not blocked by the RIPK1 inhibitor necrostatin-1. […] (Fig. 4e).
# HT-29 cells were pretreated with indicated compounds for 1h prior to stimulation with TNF-α (40ng/ml) for 15 minutes. The levels of IκB-α and phosphor-IκB-α were analyzed by western blot analysis. The NF-κB inhibitor BMS-345541 was used as a positive control.
# T1 sequence (Q13546 whole entry): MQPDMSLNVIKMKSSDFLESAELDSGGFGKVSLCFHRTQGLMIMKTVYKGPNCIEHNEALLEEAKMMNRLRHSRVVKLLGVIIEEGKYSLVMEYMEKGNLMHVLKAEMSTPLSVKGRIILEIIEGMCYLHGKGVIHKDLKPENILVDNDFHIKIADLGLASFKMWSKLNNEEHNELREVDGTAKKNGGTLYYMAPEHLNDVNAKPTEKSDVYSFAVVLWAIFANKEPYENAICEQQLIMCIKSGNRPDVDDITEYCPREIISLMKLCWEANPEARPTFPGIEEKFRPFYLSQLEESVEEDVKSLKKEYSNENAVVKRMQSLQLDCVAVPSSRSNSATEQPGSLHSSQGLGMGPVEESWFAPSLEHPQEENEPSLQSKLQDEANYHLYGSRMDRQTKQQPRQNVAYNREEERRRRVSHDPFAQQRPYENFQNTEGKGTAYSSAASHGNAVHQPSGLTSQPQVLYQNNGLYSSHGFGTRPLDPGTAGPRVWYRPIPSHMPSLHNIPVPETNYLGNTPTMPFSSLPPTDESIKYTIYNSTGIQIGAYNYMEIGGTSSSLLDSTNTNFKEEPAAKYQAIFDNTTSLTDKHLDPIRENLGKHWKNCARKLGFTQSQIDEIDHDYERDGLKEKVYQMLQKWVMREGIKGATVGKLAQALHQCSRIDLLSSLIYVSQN
smiles,measurement,setting,value
"CC(=O)Nc1nc2ccc(-c3cnc(Cl)c(NC(=O)Cc4ccccc4)c3)cc2s1 [PK6, N-(5-(2-acetamidobenzo[d]thiazol-6-yl)-2-chloropyridin-3-yl)-2-phenylacetamide]",generation of RIPK3 puncta,[1],prevented generation of RIPK3 puncta
same,IC50,human RIPK1,0.2 ± 0.13 µM
same,TNF-induced NF-κB activation,[2],no obvious effects; also recorded: no impact; also recorded: no effect
"CC(=O)Nc1nc2ccc(-c3cnc(C)c(NC(=O)OC4CCCCC4)c3)cc2s1 [PK68, cyclohexyl (5-(2-acetamidobenzo[d]thiazol-6-yl)-2-methylpyridin-3-yl)carbamate]",generation of RIPK3 puncta,[1],prevented generation of RIPK3 puncta
same,IC50,human RIPK1,~0.09 µM and 0.09 µM
same,TNF-induced NF-κB activation,[2],no obvious effects; also recorded: no impact; also recorded: no effect
